Test results: US20250051338A1, “TYK2 DEGRADERS AND USES THEREOF” (Kymera Therapeutics, Inc., priority 2021, published 2025)

Tests used:
Format in all cases: cell-based
[1] = target: T1, TYK2 (Homo sapiens, UniProt P29597); test: TYK2 degradation MSD assay in OCI-LY10 cells; parameters: endogenous in cells; host or cells: EBV-B cells; conditions: 4 to 24 hours incubation, read-out: TYK2 MSD DC50 rating in OCI-LY10
Summary of the method: (§1)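 MSD electrochemiluminescence readout of residual TYK2 in RIPA lysates after 4–24 h compound exposure at 37° C. Dosing: 9 concentrations, 1:3 steps, top 1 to 10 μM. DC50 fitted by four-parameter inhibitor vs. response regression.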

[2] = target: T1, TYK2; test: TYK2 degradation MSD assay in EBV-B cells; parameters: endogenous in cells; host or cells: EBV-B cells; conditions: 4 to 24 hours incubation, read-out: TYK2 MSD DC50 rating in EBV-B
Summary of the method: as §1

[3] = target: T1, TYK2; test: TYK2 degradation MSD assay in human PBMC cells; parameters: endogenous in cells; host or cells: human PBMC; conditions: 4 to 24 hours incubation, read-out: TYK2 MSD DC50 rating in human PBMC
Summary of the method: as §1

T1 sequence (P29597 whole entry): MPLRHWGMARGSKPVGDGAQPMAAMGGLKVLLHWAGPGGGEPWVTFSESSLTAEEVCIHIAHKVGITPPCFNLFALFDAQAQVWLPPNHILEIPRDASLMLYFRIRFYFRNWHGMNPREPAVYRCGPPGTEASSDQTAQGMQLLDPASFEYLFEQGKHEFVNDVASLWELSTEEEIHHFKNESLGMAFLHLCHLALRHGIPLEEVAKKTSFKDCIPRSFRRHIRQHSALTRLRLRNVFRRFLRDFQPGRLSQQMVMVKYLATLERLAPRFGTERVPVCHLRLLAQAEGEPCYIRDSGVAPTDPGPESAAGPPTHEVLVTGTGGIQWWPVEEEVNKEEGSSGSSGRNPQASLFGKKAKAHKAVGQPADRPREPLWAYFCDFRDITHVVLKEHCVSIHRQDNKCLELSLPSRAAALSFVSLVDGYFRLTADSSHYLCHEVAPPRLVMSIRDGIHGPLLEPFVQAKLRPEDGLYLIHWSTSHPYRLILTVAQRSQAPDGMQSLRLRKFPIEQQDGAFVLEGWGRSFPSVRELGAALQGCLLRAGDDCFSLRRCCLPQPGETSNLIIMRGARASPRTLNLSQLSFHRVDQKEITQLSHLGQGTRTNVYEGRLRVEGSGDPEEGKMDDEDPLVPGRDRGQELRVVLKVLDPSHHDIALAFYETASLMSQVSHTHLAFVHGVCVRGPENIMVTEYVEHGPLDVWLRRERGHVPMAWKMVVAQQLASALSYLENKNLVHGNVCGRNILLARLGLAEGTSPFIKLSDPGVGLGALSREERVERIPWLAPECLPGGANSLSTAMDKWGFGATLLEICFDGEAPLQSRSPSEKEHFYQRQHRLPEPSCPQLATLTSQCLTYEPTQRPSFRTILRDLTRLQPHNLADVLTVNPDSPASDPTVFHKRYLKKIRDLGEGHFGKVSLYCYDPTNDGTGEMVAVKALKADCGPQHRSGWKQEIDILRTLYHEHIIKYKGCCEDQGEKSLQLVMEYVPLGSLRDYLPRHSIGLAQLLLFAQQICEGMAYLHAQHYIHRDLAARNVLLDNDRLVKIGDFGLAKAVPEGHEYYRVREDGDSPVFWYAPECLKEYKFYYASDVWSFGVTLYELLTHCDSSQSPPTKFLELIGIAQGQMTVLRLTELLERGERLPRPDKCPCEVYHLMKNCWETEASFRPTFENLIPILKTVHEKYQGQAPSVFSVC

Row | SMILES | DC50 [1] [nM] | DC50 [2] [nM] | DC50 [3] [nM]
1 | CNc1cc(-c2cnn(C3CCC(CN4CCC(CN(C)c5ccc6c(c5)n(C)c(=O)n6C5CCC(=O)NC5=O)CC4)CC3)c2)nn2c(C(=O)NC3C[C@@H]3F)cnc12 (stereo partly drawn) [Example K364] | > 100 | > 100 | > 100
2 | Cn1c(=O)n(C2CCC(=O)NC2=O)c2ccc(C3CCN(CCCNc4cc(Nc5cccn(-c6ccccn6)c5=O)nn5c(C(=O)N[C@@H]6C[C@@H]6F)cnc45)CC3)cc21 (stereo partly drawn) [Example K366] | > 100 | > 100 | > 100
3 | Cn1c(=O)n(C2CCC(=O)NC2=O)c2ccc(CN3CCC(Nc4cc(Nc5cccn(-c6ccccn6)c5=O)nn5c(C(=O)N[C@@H]6C[C@@H]6F)cnc45)CC3)cc21 (stereo partly drawn) [Example K367] | > 100 | > 100 | > 100
4 | CNc1cc(Nc2cccn(-c3ccc(C(=O)NCc4ccc(N5CCC(N6CCC(c7ccc8c(c7)n(C)c(=O)n8C7CCC(=O)NC7=O)C6)CC5)cc4)cn3)c2=O)nn2c(C(=O)N[C@@H]3C[C@@H]3F)cnc12 (stereo partly drawn) [Example K370] | < 1 | < 1 | > 100
5 | CNc1cc(Nc2cccn(-c3ccc(C(=O)N4CCCC5(C4)CN(c4ncc(C#Cc6ccc7c(c6)n(C)c(=O)n7C6CCC(=N)NC6=O)cn4)C5)cn3)c2=O)nn2c(C(=O)N[C@@H]3C[C@@H]3F)cnc12 (stereo partly drawn) [Example K371] | > 100 | 1 to 10 | > 100
6 | CNc1cc(Nc2cccn(-c3ccc(C(=O)N4CCN(CC5CC(c6ccc(-c7ccc8c(c7)n(C)c(=O)n8C7CCC(=O)NC7=O)cc6)C5)CC4)cn3)c2=O)nn2c(C(=O)N[C@@H]3C[C@@H]3F)cnc12 (stereo partly drawn) [Example K373] | > 100 | < 1 | > 100
7 | CNc1cc(Nc2cccn(-c3ccc(C(=O)N4CCN(CC5CCN(c6ccc(-c7ccc8c(c7)n(C)c(=O)n8C7CCC(=O)NC7=O)cc6)CC5)CC4)cn3)c2=O)nn2c(C(=O)N[C@@H]3C[C@@H]3F)cnc12 (stereo partly drawn) [Example K374] | > 100 | < 1 | > 100
8 | CNc1cc(Nc2cccn(-c3ccc(C(=O)N4CCC(CN5CCC56CN(c5ncc(C#Cc7ccc8c(c7)n(C)c(=O)n8C7CCC(=O)NC7=O)cn5)C6)CC4)cn3)c2=O)nn2c(C(=O)N[C@@H]3C[C@@H]3F)cnc12 (stereo partly drawn) [Example K375] | > 100 | 1 to 10 | > 100
9 | CNc1cc(Nc2cccn(-c3ccc(C(=O)N4CCC45CN(c4ncc(C#Cc6ccc7c(c6)n(C)c(=O)n7C6CCC(=O)NC6=O)cn4)C5)cn3)c2=O)nn2c(C(=O)N[C@@H]3C[C@@H]3F)cnc12 (stereo partly drawn) [Example K376] | > 100 | 10 to 100 | > 100
10 | CNc1cc(Nc2cccn(-c3ccc(C(=O)N4CCN([C@H]5CC[C@@H](c6ccc(-c7ccc8c(c7)n(C)c(=O)n8C7CCC(=O)NC7=O)cc6)CC5)CC4)cn3)c2=O)nn2c(C(=O)N[C@@H]3C[C@@H]3F)cnc12 (stereo partly drawn) [Example K377] | > 100 | < 1 | > 100
11 | CNc1cc(Nc2cccn(-c3ccc(C(=O)N4CCN([C@H]5CC[C@H](c6ccc(-c7ccc8c(c7)n(C)c(=O)n8C7CCC(=O)NC7=O)cc6)CC5)CC4)cn3)c2=O)nn2c(C(=O)N[C@@H]3C[C@@H]3F)cnc12 (stereo partly drawn) [Example K380] | < 1 | < 1 | < 1
12 | CNc1cc(Nc2cccn(-c3ccc(C(=O)N4CCC(N5CC(N6CCN(c7ccc8c(c7)n(C)c(=O)n8C7CCC(=O)NC7=O)CC6)C5)CC4)cn3)c2=O)nn2c(C(=O)N[C@@H]3C[C@@H]3F)cnc12 (stereo partly drawn) [Example K381] | < 1 | < 1 | > 100
13 | CNc1cc(Nc2cccn(-c3ccc(C(=O)N4CC5(C4)CN(c4ncc(C#Cc6ccc7c(c6)n(C)c(=O)n7C6CCC(=O)NC6=O)cn4)C5)cn3)c2=O)nn2c(C(=O)NC3CC3F)cnc12 (stereo not drawn) [Example K382] | > 100 | < 1 | > 100
14 | CNc1cc(Nc2cccn(-c3ccc(C(=O)N4CC5(CCN(c6ccc(-c7ccc8c(c7)n(C)c(=O)n8C7CCC(=O)NC7=O)cn6)CC5)C4)cn3)c2=O)nn2c(C(=O)N[C@@H]3C[C@@H]3F)cnc12 (stereo partly drawn) [Example K383] | > 100 | < 1 | < 1
15 | CNc1cc(Nc2cccn(-c3ccc(C(=O)NC4CCC(C(=O)N5CCC6(CN(CC#Cc7ccc8c(c7)n(C)c(=O)n8C7CCC(=O)NC7=O)C6)C5)CC4)cn3)c2=O)nn2c(C(=O)N[C@@H]3C[C@@H]3F)cnc12 (stereo partly drawn) [Example K384] | > 100 | > 100 | > 100
16 | CNc1cc(Nc2cccn(C3CCN(C(=O)N(C)C4CCN(Cc5cccc6c5n(C)c(=O)n6C5CCC(=O)NC5=O)CC4)CC3)c2=O)nn2c(C(=O)N[C@@H]3C[C@@H]3F)cnc12 (stereo partly drawn) [Example K396] | > 100 | 1 to 10 | > 100
17 | CNc1cc(Nc2cccn(C3CCN(C(=O)N(C)CC4CCN(Cc5cccc6c5n(C)c(=O)n6C5CCC(=O)NC5=O)CC4)CC3)c2=O)nn2c(C(=O)N[C@@H]3C[C@@H]3F)cnc12 (stereo partly drawn) [Example K397] | > 100 | 1 to 10 | > 100

Next, values leading:

Row | DC50 [1] [nM] | DC50 [2] [nM] | DC50 [3] [nM] | SMILES
18 | > 100 | > 100 | > 100 | Cn1c(=O)n(C2CCC(=O)NC2=O)c2ccc(-c3ccc(CCCNc4cc(Nc5cccn(-c6ccccn6)c5=O)nn5c(C(=O)N[C@@H]6C[C@@H]6F)cnc45)nc3)cc21 (stereo partly drawn) [Example K365]
19 | > 100 | > 100 | 1 to 10 | CNc1cc(Nc2cccn(-c3ccc(C(=O)N(C)CCCOCCCc4cccc5c4n(C)c(=O)n5C4CCC(=O)NC4=O)cn3)c2=O)nn2c(C(=O)N[C@@H]3C[C@@H]3F)cnc12 (stereo partly drawn) [Example K369]
20 | > 100 | < 1 | > 100 | CNc1cc(Nc2cccn(-c3ccc(C(=O)N4CC5(C4)CN(c4ccc(-c6ccc7c(c6)n(C)c(=O)n7C6CCC(=O)NC6=O)cc4)C5)cn3)c2=O)nn2c(C(=O)N[C@@H]3C[C@@H]3F)cnc12 (stereo partly drawn) [Example K372]
21 | > 100 | < 1 | > 100 | CNc1cc(Nc2cccn(-c3ccc(C(=O)N4CCN(c5ccc(-c6ccc7c(c6)n(C)c(=O)n7C6CCC(=O)NC6=O)cn5)C(=O)C4)cn3)c2=O)nn2c(C(=O)N[C@@H]3C[C@@H]3F)cnc12 (stereo partly drawn) [Example K378]
22 | > 100 | < 1 | > 100 | CNc1cc(Nc2cccn(-c3ccc(C(=O)N4CCN(CCCOCCc5ccc(-c6ccc7c(c6)n(C)c(=O)n7C6CCC(=O)NC6=O)cc5)CC4)cn3)c2=O)nn2c(C(=O)N[C@@H]3C[C@@H]3F)cnc12 (stereo partly drawn) [Example K379]
23 | > 100 | < 1 | < 1 | CNc1cc(Nc2cccn(-c3ccc(C(=O)N4CCC(c5ncc(-c6ccc7c(c6)n(C)c(=O)n7C6CCC(=O)NC6=O)cn5)CC4)cn3)c2=O)nn2c(C(=O)N[C@@H]3C[C@@H]3F)cnc12 (stereo partly drawn) [Example K385]
24 | > 100 | > 100 | < 1 | CNc1cc(Nc2cccn(-c3ccc(C(=O)N4CCN(CCc5ccc6c(c5)n(C)c(=O)n6C5CCC(=O)NC5=O)CC4)cn3)c2=O)nn2c(C(=O)N[C@@H]3C[C@@H]3F)cnc12 (stereo partly drawn) [Example K386]
25 | > 100 | > 100 | < 1 | CNc1cc(Nc2cccn(-c3ccc(C(=O)N(C)Cc4ccc(-c5ccc6c(c5)n(C)c(=O)n6C5CCC(=O)NC5=O)cn4)cn3)c2=O)nn2c(C(=O)N[C@@H]3C[C@@H]3F)cnc12 (stereo partly drawn) [Example K387]
26 | > 100 | > 100 | > 100 | CNc1cc(Nc2cccn(-c3ccc(C(=O)N4CC5(CCN(c6ccc7c(c6)n(C)c(=O)n7C6CCC(=O)NC6=O)CC5)C4)cn3)c2=O)nn2c(C(=O)N[C@@H]3C[C@@H]3F)cnc12 (stereo partly drawn) [Example K388]
27 | < 1 | < 1 | < 1 | CNc1cc(Nc2cccn(-c3ccc(C(=O)N4CC5(CCN(c6cccc7c6n(C)c(=O)n7C6CCC(=O)NC6=O)CC5)C4)cn3)c2=O)nn2c(C(=O)N[C@@H]3C[C@@H]3F)cnc12 (stereo partly drawn) [Example K389]
28 | > 100 | > 100 | < 1 | CNc1cc(Nc2cccn(-c3ccc(C(=O)N4CCC(CN(C)c5ccc6c(c5)n(C)c(=O)n6C5CCC(=O)NC5=O)CC4)cn3)c2=O)nn2c(C(=O)N[C@@H]3C[C@@H]3F)cnc12 (stereo partly drawn) [Example K390]
29 | > 100 | < 1 | < 1 | CNc1cc(Nc2cccn(-c3ccc(C(=O)N4CCC5(CC4)CC(Cc4ccc6c(c4)n(C)c(=O)n6C4CCC(=O)NC4=O)C5)cn3)c2=O)nn2c(C(=O)N[C@@H]3C[C@@H]3F)cnc12 (stereo partly drawn) [Example K391]
30 | > 100 | > 100 | < 1 | CNc1cc(Nc2cccn(-c3ccc(C(=O)N4CCC5(CC4)CCN(c4ccc6c(c4)n(C)c(=O)n6C4CCC(=O)NC4=O)C5)cn3)c2=O)nn2c(C(=O)N[C@@H]3C[C@@H]3F)cnc12 (stereo partly drawn) [Example K392]
31 | > 100 | > 100 | < 1 | CNc1cc(Nc2cccn(-c3ccc(C(=O)N4CCC(OC5CC(c6ccc7c(c6)n(C)c(=O)n7C6CCC(=O)NC6=O)C5)CC4)cn3)c2=O)nn2c(C(=O)N[C@@H]3C[C@@H]3F)cnc12 (stereo partly drawn) [Example K393]
32 | > 100 | 1 to 10 | > 100 | CNc1cc(Nc2cccn(-c3ccc(C(=O)N4CCC(OCC#Cc5ccc6c(c5)n(C)c(=O)n6C5CCC(=O)NC5=O)CC4)cn3)c2=O)nn2c(C(=O)N[C@@H]3C[C@@H]3F)cnc12 (stereo partly drawn) [Example K394]
33 | > 100 | < 1 | > 100 | CNc1cc(Nc2cccn(-c3ccc(C(=O)N4CCC(n5cc(-c6ccc7c(c6)n(C)c(=O)n7C6CCC(=O)NC6=O)cn5)CC4)cn3)c2=O)nn2c(C(=O)N[C@@H]3C[C@@H]3F)cnc12 (stereo partly drawn) [Example K395]
